Test results published in patent publication US5756478A, “Method for reducing toxicity of D-nucleoside analogs with L-nucleosides” (priority 1996, dated 1998).
Several values for one entry are separate records, joined by “and”; a condition that tells them apart may be missing. Equal values may be shown once. Entries after “also recorded” stand apart in the source; their conditions may differ. Read-outs that look alike come from different tables or passages of the source.

How the values were obtained:
[1] = tested on: HIV-1IIIB; assay: Anti-HIV activity: protection of MT-2 cells infected with HIV-1IIIB (MTT-dye reduction); assay type: cell-based; settings: Human immunodeficiency virus 1, MT2, 120 h
Method: (§1) The following anti-HIV drugs were tested in combination with the L-nucleosides β-L-5-fluoro-2',b 3'-dideoxycytidine [β-L-FddC or L(-)FddC], β-L-5-fluoro-2',3'-dideoxy-2',3'-didehydrocytidine [β-L-Fd4C or L(-)Fd4C], β-L-5-fluoro-2',3'-dideoxy-3'-thiacytidine [L(-)FTC] and β-L-2',3'-dideoxy-3'-thiacytidine [L(-)SddC or 3TC]: 3'-azido-3'deoxythymidine (AZT) as well as the β-D-2',3'-dideoxynucleosides, for example, β-D-2',3'-dideoxycytidine (ddC), β-D-2',3'-dideoxyadenosine, β-D-2',3'-dideoxyinosine (DDI) and β-D-2',3'-didehydro-3'-deoxy-thymidine (D4T). β-L-FddC and β-L-Fd4C was obtained following the method of Lin, et al., J. Med. Chem., 37, no. 6 (1994). L(-)FTC and L(-)SddC were prepared by standard literature procedures. See, for example, Jeong, et al. J. Med. Chem., 36, 181 (1993). AZT was obtained from Sigma Chemical Co., St. Louis, Mo., USA. ddC was obtained from Aldrich Chemical Co., Milwaukke, Wis. USA. DDI and D4T were obtained from Bristol-Myers Co., Wallingford, Conn., USA.
(§2) The above-mentioned drugs were tested using MT-2 cells infected with HIV-1IIIB as described by JW Mellers, et al., Molecular Pharm. 41, 446-451 (1991) with some modification. Briefly, triplicate wells of 96-well plates containing 1×10^4 MT-2 cells were infected with HIV-1IIIB at a multiplicity of infection (MOI) of 0.1 TCID50 per cell (TCID50 - 50% tissue culture infective dose). Serial dilutions of drug were added immediately after infection. Cell viability was quantitated 5 days after infection by the MTT-dye reduction model (Larder, et al. Antimicrob. Agents Chemother. 34, 436-441, 1990). The percentage of protection was calculated with the formula [(a-b/c-b)×100], in which a=the A595 of drug-treated, virus-infected well, b=A595 of no-drug infected wells, and c=A595 of no-drug, uninfected wells.

[2] = tested on: CEM, a Human T-type lymphoblast tumor cell line; assay: Cell growth inhibition of CEM cells by D-nucleosides with or without L-nucleosides; assay type: cell-based
Source text: CEM, a Human T-type lymphoblast tumor cell line was used for this study. […] At the end of four days after the addition of the drug, the cell number was estimated by hemocytometer. […] The data, presented below in Table 1-3, are normalized against the control. The parenthetical values represent the expected effect the combined agents should have on cell growth.

[3] = tested on: Mitochondrial DNA (mtDNA); assay: Mitochondrial DNA (mtDNA) content of CEM cells (slot blot); assay type: cell-based, Human; settings: with AZT, ddC, DDI or D4T
Method: To determine the effect of nucleoside analogues on mtDNA content, CEM cells were treated with various concentrations of drug 8 days with medium and drug changes every 2 days. Cells (1×10^5)are washed twice with phosphate buffered […] (PBS) and resuspended in 25 mM Tris (pH 8.0) and 1 mM EDTA. The cells are lysed by 5 cycles of freeze/thaw. RNAase A (DNase free, final concentration of 0.1 mg/ml) is added to the cel ysate and incubated for 3 hours at 50° C. The lysate is brought to a final concentration of 10×SSC, boiled for 10 min., and applied to a nylon membrane presoaked in 2X SSC using a slot blot apparatus. […] All blots are normalized for loading using an Alu probe (ATCC). Blots are exposed to X-ray film and quantitated using a Molecular Dynamics Personal Densitometer SI.

[4] = tested on: HIV-1IIIB; assay: Anti-HIV combination of D- and L-nucleosides in HIV-1IIIB infected MT-2 cells (isobolograms); assay type: cell-based; settings: for Effect of L-nucleoside on ID50 of co-administered D-nucleoside: with AZT, D4T, ddC or DDI; for Nature of the anti-HIV combination effect with L-nucleosides (ID50): D-nucleoside co-administered with β-L-FddC, L(-)FTC, L(-)SddC or β-L-Fd4C
Method: as §1, §2
Isobolograms (FIGS. 1-2) were plotted as the percent change in the ID50 of β-L-FddC (L(-)FddC), L(-)FTC, L(-)SddC (FIGS. 1 and 2) β-L-Fd4C (L(-)Fd4C) at various concentrations in combination with AZT, D4T, ddC or DDI at varying concentations on the x-axis and vice versa on the y-axis. Isobolograms (FIG. 3) were plotted as the percent change in the ID50 of β-L-Fd4C (L(-)Fd4C) at various concentrations in combination with AZT or D4T at varying concentrations on the x-axis and vice-versa on the y-axis.

[5] = MT-2 cells, HIV-1IIIB, MOI 0.1 TCID50 per cell, 5 days, read-out: ID50 (the source's name)
[6] = Homo sapiens, CCRF-CEM, 96 h, single agent, 1.0 uM, day 4, read-out: Day 4 Cell Growth - % of Control
[7] = Homo sapiens, CCRF-CEM, 96 h, single agent, 0.1 uM, day 4, read-out: Day 4 Cell Growth - % of Control

Q: For `Nc1nc(=O)n(C2CCC(CO)O2)cc1F` (single isomer, unassigned) [β-L-FddC, β-L-5-fluoro-2',3'-dideoxycytidine], which IC50 [1, 5] is on record?
A: Its IC50 is 450 nM.

Q: What about the activity at 1 µM [2, 6] of the same molecule?
A: Its activity at 1 µM is 84%.

Q: What about the “Effect of L-nucleoside on D-nucleoside inhibition of mitochondrial DNA synthesis” value [3] of the same molecule?
A: The value was “could prevent the effect of AZT, ddC, DDI or D4T in inhibiting the synthesis of mitochondrial DNA synthesis; also recorded: appears to inhibit the ability of the co-administered D-nucleoside to inhibit the synthesis of mitochondrial DNA”.

Q: What about the “Effect of L-nucleoside on ID50 of co-administered D-nucleoside” value [4] of the same molecule?
A: Its value is “reduces the ID50 value of AZT, ddC, DDI and D4T; also recorded: decreases the ID50 of a co-administered D-nucleoside and vice versa”.

Q: Which results are given for `Nc1ccn(C2CCC(CO)O2)c(=O)n1` [ddC, β-D-2',3'-dideoxycytidine]?
A: IC50 [1, 5]: 600 nM; Day 4 Cell Growth - % of Control ([2]; 0.01 uM, in combination with 1 uM 3TC): 86 % of Control; Day 4 Cell Growth - % of Control ([2]; 0.01 uM, in combination with 1 uM (-) FTC): 91 % of Control; Day 4 Cell Growth - % of Control ([2]; 0.01 uM, in combination with 1 uM β-L-FddC): 88 % of Control; Day 4 Cell Growth - % of Control ([2]; 0.1 uM, in combination with 1 uM 3TC): 83 % of Control; Day 4 Cell Growth - % of Control ([2]; 0.1 uM, in combination with 1 uM (-) FTC): 87 % of Control; Day 4 Cell Growth - % of Control ([2]; 0.1 uM, in combination with 1 uM β-L-FddC): 84 % of Control; Day 4 Cell Growth - % of Control ([2]; 1.0 uM, in combination with 1 uM 3TC): 67 % of Control; Day 4 Cell Growth - % of Control ([2]; 1.0 uM, in combination with 1 uM (-) FTC): 69 % of Control; Day 4 Cell Growth - % of Control ([2]; 1.0 uM, in combination with 1 uM β-L-FddC): 76 % of Control; activity at 0.01 µM ([2]; Homo sapiens, CCRF-CEM, 96 h, single agent, 0.01 uM, day 4, read-out: Day 4 Cell Growth - % of Control): 92%; activity at 0.1 µM [2, 7]: 80%; activity at 1 µM [2, 6]: 70%; Day 4 Cell Growth - % of Control, expected effect of the combined agents (parenthetical) ([2]; 0.01 uM with 1 uM β-L-FddC): 78 % of Control; Day 4 Cell Growth - % of Control, expected effect of the combined agents (parenthetical) ([2]; 0.1 uM with 1 uM β-L-FddC): 78 % of Control; Day 4 Cell Growth - % of Control, expected effect of the combined agents (parenthetical) ([2]; 1.0 uM with 1 uM β-L-FddC): 66 % of Control; Day 4 Cell Growth - % of Control ([2]; single agent, 0.01 uM, 5760 min): 89 % of Control and 93 % of Control; Day 4 Cell Growth - % of Control ([2]; single agent, 0.1 uM, 5760 min): 83 % of Control and 93 % of Control; Day 4 Cell Growth - % of Control ([2]; single agent, 1.0 uM, 5760 min): 65 % of Control and 79 % of Control; Nature of the anti-HIV combination effect with L-nucleosides (ID50) [4]: additively; also recorded: additive

Q: Which results are given for `Nc1nc(=O)n([C@@H]2CS[C@H](CO)O2)cc1F` [L(-)FTC, β-L-5-fluoro-2',3'-dideoxy-3'-thiacytidine]?
A: IC50 ([1]; MT-2 cells, HIV-1IIIB, MOI 0.1 TCID50 per cell, 5 days, unit inferred, read-out: ID50 (the source's name)): 600 nM; activity at 0.1 µM [2, 7]: 104%; activity at 1 µM [2, 6]: 87%; activity at 10 µM ([2]; Homo sapiens, CCRF-CEM, 96 h, single agent, 10 uM, day 4, read-out: Day 4 Cell Growth - % of Control): 76%; Day 4 Cell Growth - % of Control ([2]; single agent, 1.0 uM, listed as (-) FTC, 5760 min): 84 % of Control; Day 4 Cell Growth - % of Control ([2]; single agent, 1.0 uM, listed as FTC, 5760 min): 87 % of Control; Effect of L-nucleoside on D-nucleoside inhibition of mitochondrial DNA synthesis [3]: could prevent the effect of AZT, ddC, DDI or D4T in inhibiting the synthesis of mitochondrial DNA synthesis; Effect of L-nucleoside on ID50 of co-administered D-nucleoside [4]: reduces the ID50 value of AZT, ddC, DDI and D4T; also recorded: decreases the ID50 of a co-administered D-nucleoside and vice versa

Q: For `Cc1cn([C@H]2C[C@H](N=[N+]=[N-])[C@@H](CO)O2)c(=O)[nH]c1=O` [AZT, 3'-azido-3'deoxythymidine], which IC50 ([1]; read-out: ID50) is on record?
A: The IC50 was 90 nM.

Q: And the “Day 4 Cell Growth - % of Control” value ([2]; 0.5 uM, in combination with 1 uM 3TC)?
A: The value was 83 % of Control.

Q: And the “Day 4 Cell Growth - % of Control” value ([2]; 0.5 uM, in combination with 1 uM (-) FTC)?
A: The value was 87 % of Control.

Q: And the “Day 4 Cell Growth - % of Control” value ([2]; 0.5 uM, in combination with 1 uM β-L-FddC)?
A: The value was 80 % of Control.

Q: What about the “Day 4 Cell Growth - % of Control” value ([2]; 5.0 uM, in combination with 1 uM 3TC) of the same molecule?
A: Its value is 76 % of Control.

Q: What about the “Day 4 Cell Growth - % of Control” value ([2]; 5.0 uM, in combination with 1 uM (-) FTC) of the same molecule?
A: Its value is 83 % of Control.

Q: And the “Day 4 Cell Growth - % of Control” value ([2]; 5.0 uM, in combination with 1 uM β-L-FddC)?
A: Its value is 79 % of Control.

Q: And the “Day 4 Cell Growth - % of Control” value ([2]; 50 uM, in combination with 1 uM 3TC)?
A: The value was 70 % of Control.

Q: And the “Day 4 Cell Growth - % of Control” value ([2]; 50 uM, in combination with 1 uM (-) FTC)?
A: Its value is 64 % of Control.

Q: And the “Day 4 Cell Growth - % of Control” value ([2]; 50 uM, in combination with 1 uM β-L-FddC)?
A: Its value is 75 % of Control.

Q: What about the activity at 0.5 µM ([2]; Homo sapiens, CCRF-CEM, 96 h, single agent, 0.5 uM, day 4, read-out: Day 4 Cell Growth - % of Control) of the same molecule?
A: The activity at 0.5 µM was 91%.

Q: And the activity at 5 µM ([2]; Homo sapiens, CCRF-CEM, 96 h, single agent, 5.0 uM, day 4, read-out: Day 4 Cell Growth - % of Control)?
A: The activity at 5 µM was 89%.

Q: What about the activity at 50 µM ([2]; Homo sapiens, CCRF-CEM, 96 h, single agent, 50 uM, day 4, read-out: Day 4 Cell Growth - % of Control) of the same molecule?
A: Its activity at 50 µM is 74%.

Q: And the “Day 4 Cell Growth - % of Control, expected effect of the combined agents (parenthetical)” value (shortened to “Day 4 Cell Growth - % … (parenthetical)”) ([2]; 0.5 uM with 1 uM β-L-FddC)?
A: Its value is 76 % of Control.

Q: And the “Day 4 Cell Growth - % … (parenthetical)” value ([2]; 5.0 uM with 1 uM β-L-FddC)?
A: Its value is 75 % of Control.

Q: What about the “Day 4 Cell Growth - % … (parenthetical)” value ([2]; 50 uM with 1 uM β-L-FddC) of the same molecule?
A: Its value is 62 % of Control.

Q: And the “Day 4 Cell Growth - % of Control” value ([2]; single agent, 0.5 uM, 5760 min)?
A: Its value is 82 % of Control and 85 % of Control.

Q: What about the “Day 4 Cell Growth - % of Control” value ([2]; single agent, 5.0 uM, 5760 min) of the same molecule?
A: Its value is 79 % of Control.

Q: What about the “Day 4 Cell Growth - % of Control” value ([2]; single agent, 50 uM, 5760 min) of the same molecule?
A: The value was 72 % of Control.

Q: What about the “Nature of the anti-HIV combination effect with L-nucleosides (ID50)” value [4] of the same molecule?
A: The value was “synergistically; also recorded: synergistic”.
